Test results: the supplement of paper PMC7021759
± gives the standard deviation of the averaged measurements.

Test system: SK-N-MM (SKNMM-MYCN, doxycycline-inducible MYCN)
Test: area under dose-response curve (CellTiter-Glo viability normalised to plate controls) (AUC (arbitrary units)); higher = more loss of viability; extreme values may be limits of the assay
Procedure, shortened: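 For each compound, area under the dose-response curve was calculated from log2 CellTiter-Glo luminescence normalised to the positive and negative controls on each plate. The cells were SK-N-MM with doxycycline-inducible MYCN, plated at 1250 cells/100 μL in 96-well plates and moved to medium with or without doxycycline about 24 h later. Two days after that, 10-point 1:3 dilution series were pin-transferred (890-fold stock dilution), with re-dosing on day 4 and readout 3 or 8 days after drugging.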

[1] = MYCN induction (doxycycline): +doxycycline (MYCN induced), time after drugging: 3 days
[2] = MYCN induction (doxycycline): +doxycycline (MYCN induced), time after drugging: 8 days
[3] = MYCN induction (doxycycline): no doxycycline (MYCN not induced), time after drugging: 3 days
[4] = MYCN induction (doxycycline): no doxycycline (MYCN not induced), time after drugging: 8 days

| Structure (SMILES) | area under dose-response curve [1] | area under dose-response curve [2] | area under dose-response curve [3] | area under dose-response curve [4] |
| --- | --- | --- | --- | --- |
| O=C(Nc1c[nH]nc1-c1nc2ccc(CN3CCOCC3)cc2[nH]1)NC1CC1 [AT9283] | 91 | 206 | 42.9 | 145 |
| O=c1[nH]c(=O)n([C@H]2C[C@H](O)[C@@H](CO)O2)cc1F [FLOXURIDINE] | 23.4 | 165 | 11.8 | 66.3 |
| CC(=O)Nc1cccc(-n2c(=O)n(C3CC3)c(=O)c3c(Nc4ccc(I)cc4F)n(C)c(=O)c(C)c32)c1 [TRAMETINIB] | 54.2 | 206 | 42.4 | 152 |
| Nc1cc(C(F)(F)F)c(-c2cc(N3CCOCC3)nc(N3CCOCC3)n2)cn1 [BUPARLISIB] | 91.8 | 150 | 65.7 | 86.9 |
| CC1(C)CCC(CN2CCN(c3ccc(C(=O)NS(=O)(=O)c4ccc(NCC5CCOCC5)c([N+](=O)[O-])c4)c(Oc4cnc5[nH]ccc5c4)c3)CC2)=C(c2ccc(Cl)cc2)C1 [VENETOCLAX] | – | 2.61 ± 3.7 | 0 | 0 |
| CC(/C=C/C(=O)NO)=C\[C@@H](C)C(=O)c1ccc(N(C)C)cc1 [TRICHOSTATIN A] | 159 | 310 | 124 | 282 |
| CCc1nc(N)nc(N)c1-c1ccc(Cl)cc1 [PYRIMETHAMINE] | 13.5 | 65.7 | 5.97 | 22.1 |
| Cc1cn(-c2cc(NC(=O)c3ccc(C)c(Nc4nccc(-c5cccnc5)n4)c3)cc(C(F)(F)F)c2)cn1 [NILOTINIB] | 2.25 | 2.7 | 2.22 | 3.03 |
| CO[C@@]12[C@H](COC(N)=O)C3=C(C(=O)C(C)=C(N)C3=O)N1C[C@@H]1N[C@@H]12 [MITOMYCIN C] | 11.1 | 100 | 4.39 | 78.3 |
| C=C1[C@@H](O)[C@@H]2O[C@]3(CC[C@H](/C=C/[C@@H](C)[C@@H]4CC(C)=C[C@@]5(O[C@H](C[C@@](C)(O)C(=O)O)CC[C@H]5O)O4)O3)CC[C@H]2O[C@@H]1[C@@H](O)C[C@H](C)[C@H]1O[C@@]2(CCCCO2)CC[C@H]1C [OKADAIC ACID] | 204 | 277 | 167 | 266 |
| CCN(CCCOc1ccc2c(Nc3cc(CC(=O)Nc4cccc(F)c4)[nH]n3)ncnc2c1)CCOP(=O)(O)O [BARASERTIB] | 19.5 | 92.2 | – | 33.5 |
| Cc1cnc(NC(=O)Nc2cc(Br)c(C)cc2OC[C@@H]2CNCCO2)cn1 [RABUSERTIB] | 89.5 | 171 | 31 | 95.5 |
| Cn1cnc2c(F)c(Nc3ccc(Br)cc3Cl)c(C(=O)NOCCO)cc21 [SELUMETINIB] | 0 | 0 | 0.45 | 18.9 |
